From patent US20240228535A1 (priority 2022, published 2024)

The compounds below were run against SARS2 coronavirus 3CL protease (Severe acute respiratory syndrome coronavirus 2, UniProt P0DTD1) (assay: biochemical). Details: 5 nM enzyme, 30 min pre-incubation with compound, 15 μM peptide substrate, 4 h at room temperature; read-out: FRET Potency (nM); IC50 values in the SARS2 3CLPro FRET assay.
In the case of C[C@@H]1C[C@@H](C[C@H](NC(=O)c2cc(Cl)ccc2NC(=O)C(C)(C)O)C(=O)C(=O)NC2CC2)C(=O)N1 [Example 165, 5-chloro-N-[(1S)-3-(cyclopropylamino)-1-[[(3S,5R)-5-methyl-2-oxo-pyrrolidin-3-yl]methyl]-2,3-dioxo-propyl]-2-[(2-hydroxy-2-methyl-propanoyl)amino]benzamide], the IC50 is reported as 6.3 nM.
For CO[C@@H](C)C(=O)Nc1ccc(Cl)cc1C(=O)N[C@@H](C[C@@H]1C[C@@H](C)NC1=O)C(=O)C(=O)NC1CC1 [Example 166, 5-chloro-N-[(1S)-3-(cyclopropylamino)-1-[[(3S,5R)-5-methyl-2-oxo-pyrrolidin-3-yl]methyl]-2,3-dioxo-propyl]-2-[[(2S)-2-methoxypropanoyl]amino] benzamide], the IC50 was 10.1 nM.
Compound CNC(=O)C(=O)[C@H](C[C@@H]1C[C@@H](C)NC1=O)NC(=O)c1cc(Cl)ccc1NC(=O)OC1CCCC1 [Example 167, cyclopentyl N-[4-chloro-2-[[(1S)-3-(methylamino)-1-[[(3S,5R)-5-methyl-2-oxo-pyrrolidin-3-yl]methyl]-2,3-dioxo-propyl]carbamoyl]phenyl] carbamate] has an IC50 of 5.5 nM.
For O=C(NC1CC1)C(=O)[C@H](C[C@@H]1CCNC1=O)NC(=O)c1cc(Cl)ccc1NC(=O)[C@H]1CC1(F)F [Example 168], the IC50 was 12 nM.
Work on CNC(=O)C(=O)[C@H](C[C@@H]1C[C@@H](C)NC1=O)NC(=O)c1cc(C(F)(F)F)ccc1NC(=O)OC1CC1 [Example 169, cyclopropyl N-[2-[(1S)-3-(methylamino)-1-[[(3S,5R)-5-methyl-2-oxo-pyrrolidin-3-yl]methyl]-2,3-dioxo-propyl]carbamoyl]-4-(trifluoromethyl)phenyl] carbamate] yielded an IC50 of 75.3 nM.
Work on CNC(=O)C(=O)[C@H](C[C@@H]1C[C@@H](C)NC1=O)NC(=O)c1cc(Cl)c(Cl)cc1NC(=O)OC1CC1 [Example 170, cyclopropyl N-[4,5-dichloro-2-[[(1S)-3-(methylamino)-1-[[(3S,5R)-5-methyl-2-oxo-pyrrolidin-3-yl]methyl]-2,3-dioxo-propyl]carbamoyl]phenyl] carbamate] yielded an IC50 of 10.5 nM.
With CNC(=O)C(=O)[C@H](C[C@@H]1C[C@@H](C)NC1=O)NC(=O)c1cc(Cl)ccc1NC(=O)OC1CC1(F)F (stereo partly drawn) [Example 171, (2,2-difluorocyclopropyl) N-[4-chloro-2-[(1S)-3-(methylamino)-1-[[(3S,5R)-5-methyl-2-oxo-pyrrolidin-3-yl]methyl]-2,3-dioxo-propyl]carbamoyl]phenyl] carbamate] the IC50 was 3.2 nM.
In the case of CNC(=O)C(=O)[C@H](C[C@@H]1C[C@@H](C)NC1=O)NC(=O)c1cc(Cl)ccc1NC(=O)OC1CC1(F)F (stereo partly drawn) [Example 172, (2,2-difluorocyclopropyl) N-[4-chloro-2-[(1S)-3-(methylamino)-1-[[(3S,5R)-5-methyl-2-oxo-pyrrolidin-3-yl]methyl]-2,3-dioxo-propyl]carbamoyl]phenyl] carbamate], the IC50 is reported as 3.7 nM.
CNC(=O)C(=O)[C@H](C[C@@H]1CCNC1=O)NC(=O)c1cc(Cl)ccc1NC(=O)OC1CC(F)(F)C1 [Example 173] gave an IC50 of 6.7 nM.
In the case of CNC(=O)C(=O)[C@H](C[C@@H]1CCNC1=O)NC(=O)c1cc(Cl)ccc1NC(=O)OCc1ccccc1 [Example 174], the IC50 is reported as 6.5 nM.
CNC(=O)C(=O)[C@H](C[C@@H]1CCNC1=O)NC(=O)c1cc(Cl)ccc1NC(=O)C1CC1C(F)(F)F (stereo partly shown) [Example 175] showed an IC50 of 2.8 nM.
CNC(=O)C(=O)[C@H](C[C@@H]1CCNC1=O)NC(=O)c1cc(Cl)ccc1NC(=O)C1CC1C(F)(F)F (stereo partly drawn) [Example 176, 5-chloro-N-[(1S)-3-(methylamino)-2,3-dioxo-1-[[(3S)-2-oxopyrrolidin-3-yl]methyl]propyl]-2-[[2-(trifluoromethyl)cyclopropane-carbonyl]amino]benzamide] showed an IC50 of 2.5 nM.
Compound C[C@@H]1C[C@@H](C[C@H](NC(=O)c2cc(Cl)ccc2NC(=O)C(F)(F)F)C(=O)C(=O)NC2CC2)C(=O)N1 [Example 177, 5-chloro-N-[(1S)-3-(cyclopropylamino)-1-[[(3S,5R)-5-methyl-2-oxo-pyrrolidin-3-yl]methyl]-2,3-dioxo-propyl]-2-[(2,2,2-trifluoroacetyl)amino] benzamide] has an IC50 of 10.9 nM.
CNC(=O)C(=O)[C@H](C[C@@H]1C[C@@H](C)NC1=O)NC(=O)c1cc(Cl)ccc1NC(=O)CCC(F)(F)F [Example 178, 5-chloro-N-[(1S)-3-(methylamino)-1-[[(3S,5R)-5-methyl-2-oxo-pyrrolidin-3-yl]methyl]-2,3-dioxo-propyl]-2-(4,4,4-trifluorobutanoylamino) benzamide] showed an IC50 of 7 nM.
CNC(=O)C(=O)[C@H](C[C@@H]1CCNC1=O)NC(=O)c1cc(Cl)ccc1NC(=O)C(C)c1cscn1 (stereo partly drawn) [Example 179, 5-chloro-N-[(1S)-3-(methylamino)-2,3-dioxo-1-[[(3S)-2-oxopyrrolidin-3-yl]methyl]propyl]-2-(2-thiazol-4-ylpropanoylamino)benzamide] gave an IC50 of 2.5 nM.
CNC(=O)C(=O)[C@H](C[C@@H]1CCNC1=O)NC(=O)c1cc(Cl)ccc1NC(=O)OC(C)C(F)(F)F (stereo partly shown) [Example 180] was tested, and the IC50 was 4.5 nM.
Work on CNC(=O)C(=O)[C@H](C[C@@H]1C[C@@H](C)NC1=O)NC(=O)c1cc(Cl)ccc1NC(=O)OCC(F)(F)F [Example 181, 2,2,2-trifluoroethyl N-[4-chloro-2-[[(1S)-3-(methylamino)-1-[[(3S,5R)-5-methyl-2-oxo-pyrrolidin-3-yl]methyl]-2,3-dioxo-propyl]carbamoyl]phenyl] carbamate] yielded an IC50 of 7.2 nM.
For CNC(=O)C(=O)[C@H](C[C@@H]1C[C@@H](C)NC1=O)NC(=O)c1cc(Cl)ccc1NC(=O)[C@@H]1CN(C)C(=O)O1 [Example 182, (5S)-N-[4-chloro-2-[[(1S)-3-(methylamino)-1-[[(3S,5R)-5-methyl-2-oxo-pyrrolidin-3-yl]methyl]-2,3-dioxo-propyl]carbamoyl]phenyl]-3-methyl-2-oxo-oxazolidine-5-carboxamide], the IC50 was 6.7 nM.
CNC(=O)C(=O)[C@H](C[C@@H]1C[C@@H](C)NC1=O)NC(=O)c1cc(Cl)ccc1NC(=O)c1cncc(C#N)c1 [Example 183] showed an IC50 of 10.1 nM.
Compound CNC(=O)C(=O)[C@H](C[C@@H]1C[C@@H](C)NC1=O)NC(=O)c1cc(Cl)ccc1NC(=O)C1CCCC1(F)F (stereo partly drawn) [Example 184, 5-chloro-2-[(2,2-difluorocyclopentanecarbonyl)amino]-N-[(1S)-3-(methylamino)-1-[[(3S,5R)-5-methyl-2-oxo-pyrrolidin-3-yl]methyl]-2,3-dioxo-propyl]benzamide] has an IC50 of 13.5 nM.
Work on CNC(=O)C(=O)[C@H](C[C@@H]1C[C@@H](C)NC1=O)NC(=O)c1cc(Cl)ccc1NC(=O)C1CCCC1(F)F (stereo partly drawn) [Example 185, 5-chloro-2-[(2,2-difluorocyclopentanecarbonyl)amino]-N-[(1S)-3-(methylamino)-1-[[(3S,5R)-5-methyl-2-oxo-pyrrolidin-3-yl]methyl]-2,3-dioxo-propyl]benzamide] yielded an IC50 of 9 nM.
Work on CNC(=O)C(=O)[C@H](C[C@@H]1C[C@@H](C)NC1=O)NC(=O)c1cc(Cl)ccc1NC(=O)OCC1CC1(F)F (stereo partly drawn) [Example 186, (2,2-difluorocyclopropyl)methyl N-[4-chloro-2-[[(1S)-3-(methylamino)-1-[[(3S,5R)-5-methyl-2-oxo-pyrrolidin-3-yl]methyl]-2,3-dioxo-propyl]carbamoyl]phenyl] carbamate] yielded an IC50 of 2.5 nM.
